Assay results published in patent publication US20250057840A1, “COMPOSITIONS AND METHODS FOR THE TREATMENT OF DISEASES WITH ISOCITRATE DEHYDROGENASE 1/2 MUTATIONS” (Fred Hutchison Cancer Center, priority 2023, published 2025).
Like-named read-outs stand apart in the source and are kept apart here.

Assays:
RBE cells (IDHm ICC) [1] = experiment: cells; conditions: Homo sapiens, read-out: Survival IC50
[2] = system: HuCCT1 cells (IDH WT ICC); experiment: cells; conditions: Homo sapiens, HuCCT-1, read-out: Survival IC50
[3] = system: SNU-1079 cells (IDHm ICC); experiment: MTT proliferation / cell viability assay in SNU-1079; type: cell-based, human; conditions: Homo sapiens, read-out: Proliferation IC50
Protocol: (§1) FIGS. 46A-46C are IC50 curves of IDH WT and mutant cells lines to S6K inhibitors. IDHm cells (SNU-1079 and RBE) and IDH WT cells (CCLP1 and HuCCT1) were treated with S6K inhibitors M2698 (FIG. 46A), PF-4708671 (FIG. 46B), and LY2584702 (FIG. 46C) for 7 days, and the cell viabilities were measured by MTT assay.

[4] = system: HuCCT1 cells (IDH WT ICC); experiment: MTT proliferation / cell viability assay in HuCCT1; type: cell-based, human; conditions: Homo sapiens, HuCCT-1, read-out: Proliferation IC50
Protocol: as §1

[5] = system: mTOR, ERK, and STAT3 survival pathways (pS6K, pS6) in IDH WT ICC cell lines (HuCCT1, CCLP1, ICC2); experiment: Western blot of survival pathways in IDH WT ICC cell lines; type: cell-based, human; conditions: 6 hours of dasatinib treatment; three IDH WT ICC lines
Protocol: Protein Isolation and Western Blot. Protein lysates were prepared by lysing cells directly in NP-40 buffer supplemented with a protease inhibitor cocktail (Complete EDTA-free, Roche Applied Science), […] and phosphatase inhibitors (Phosphatase Inhibitor Cocktail Sets I and II, Calbiochem). Cells suspended in lysis buffer were sonicated for 10 seconds of active sonication, followed by 20 seconds of rest for 3 cycles at 20% amplitude. The lysate was then centrifuged at 14,000 rpm for 10 mins at 4° C. and the supernatant was harvested. A BCA protein assay kit (Pierce) was used to measure and normalize protein concentration. 30 μg of the cell lysate was run on a 4-20% gradient polyacrylamide gel with SDS (Biorad) and electroblotted onto polyvinylidene difluoride membranes (PVDF) (Millipore). Membranes were blocked in TBS-T with 5% non-fat milk and 0.1% Tween and probed with primary antibodies (Table 1). Horseradish-peroxidase-conjugated secondary antibodies (Vector Biolaboratories) were used to detect membrane-bound proteins. Blots were developed using Clarity Max Western ECL Blotting Substrate (Biorad). Signaling experiments are representative of at least two independent experiments.

[6] = system: SNU-1079 cells (IDHm ICC); experiment: cells; conditions: Homo sapiens, read-out: Survival IC50
ICC2 cells (IDH WT ICC) [7] = experiment: cells; conditions: Homo sapiens, read-out: Proliferation IC50
Protocol: (§2) Proliferation Assays. Cells were plated in 96-well plates (1,000 cells/well) in culture medium. […] The cells were allowed to grow 5-7 days until control wells were confluent. Viable cells were quantified by adding MTT (M-6494; ThermoFisher Scientific) at a final concentration of 1 mg/mL for 3 hours at 37° C. 100 μL/well of DMSO was added to solubilize formazan crystals. Absorbance was read at 490 nm and normalized to DMSO control. For each experimental condition, duplicate wells were seeded, and data is represented as mean±SEM among three independent experiments.

ICC5 cells (IDHm ICC) [8] = experiment: cells; conditions: Homo sapiens, read-out: Proliferation IC50
Protocol: as §2

CCLP1 cells (IDH WT ICC) = experiment: Survival curves in CCLP1; type: cell-based; conditions: Homo sapiens, CC-LP-1, FIG. 1B
ICC2 cells (IDH WT ICC) [9] = experiment: cells; conditions: Homo sapiens, read-out: Survival IC50
ICC5 cells (IDHm ICC) [10] = experiment: cells; conditions: Homo sapiens, read-out: Survival IC50
RBE cells (IDHm ICC) [11] = experiment: MTT proliferation / cell viability assay in RBE; type: cell-based, human; conditions: Homo sapiens, read-out: Proliferation IC50
Protocol: as §1

Cc1nc(Nc2ncc(C(=O)Nc3c(C)cccc3Cl)s2)cc(N2CCN(CCO)CC2)n1 [dasatinib]
IC50 (RBE cells (IDHm ICC) [1]): 4.1 nM | IC50 [2]: 977 nM | IC50 [3]: 11.4 nM | IC50 [4]: 97.9 nM | effect on pathways evaluated (S6K/S6, ERK, STAT3) [5]: no effect | IC50 [6]: 22.6 nM | IC50 (ICC2 cells (IDH WT ICC) [7]): 50.6 nM | IC50 (ICC5 cells (IDHm ICC) [8]): 5.93 nM | IC50 (CCLP1 cells (IDH WT ICC)): 8040 nM | IC50 (ICC2 cells (IDH WT ICC) [9]): 162 nM | IC50 (ICC5 cells (IDHm ICC) [10]): 41.7 nM | IC50 (RBE cells (IDHm ICC) [11]): 2.75 nM
